Biological target: Glucagon receptor (Rattus norvegicus, UniProt P30082)
Assay: pA2 value towards glucagon receptor relative to glucagon was calculated

Glucagon receptor, sequence (P30082 whole entry): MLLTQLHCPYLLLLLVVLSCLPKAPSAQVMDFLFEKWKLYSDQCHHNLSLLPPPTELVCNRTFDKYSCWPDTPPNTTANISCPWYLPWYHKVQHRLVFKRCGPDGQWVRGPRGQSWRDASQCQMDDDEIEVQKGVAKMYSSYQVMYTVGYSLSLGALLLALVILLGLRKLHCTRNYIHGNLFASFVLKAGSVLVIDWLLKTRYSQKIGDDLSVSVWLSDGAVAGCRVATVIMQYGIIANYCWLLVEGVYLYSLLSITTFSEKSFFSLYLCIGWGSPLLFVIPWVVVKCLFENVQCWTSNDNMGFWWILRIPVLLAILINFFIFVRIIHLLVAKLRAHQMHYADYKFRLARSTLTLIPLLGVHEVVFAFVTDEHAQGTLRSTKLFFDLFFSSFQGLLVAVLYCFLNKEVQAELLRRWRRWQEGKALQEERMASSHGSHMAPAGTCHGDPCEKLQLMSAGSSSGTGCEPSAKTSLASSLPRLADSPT

Kb: 6.31 nM
Substance: H-SQGTTSEYSKYLDSRRAQDFVQWLMNT-NH2

Source: ChEMBL document CHEMBL1150501 (Bioorg Med Chem Lett, 1995)
